# Measurements from patent EP2557075A1, “New triazene compounds for treating cancer” (Trin Therapeutics GmbH, priority 2011, dated 2013).
# Read-outs that look alike come from different tables or passages of the source.
# Legend:
# MDA-MB231 = assay: IC50 of triazenes in MDA-MB231 cell line (Experiment 3); assay type: cell-based; conditions: Homo sapiens, MDA-MB-231; IC50 für die MDA-MB231 gemäß Experiment 3; used as incubation concentration for PBC
# Source text: Die nachfolgenden Experimente 3 und 4 zeigen, dass die erfindungsgemäßen neuen Triazenverbindungen eine vergleichbare Anti-Tumorwirkung (IC50) in zahlreichen Krebszelllinien wie der HepG2 (Leber), HCT8 (Darm), DU-145 (Prostata), MCF-7 und MDA-MB-231 (Brust) und MiaPaca-2 (Bauchspeicheldrüse) bei bis zu 100fach niedrigeren Konzentrationen zeigen als vergleichbare Triazene wie DTIC, TMZ oder Substanzen wie sie in der WO 2009/004060 und der DE 1 7931 1 5 beschrieben sind.
# Verschiedene Triazene wie erfindungsgemäße Verbindungen nach Beispiel 1, DTIC, TMZ sowie Verbindungen nach Präparat 2 und 5 (entsprechend Verbindungen nach Präparat 2 und Beispiel 2a jeweils der WO 2009/004060) sowie Verbindungen nach Beispiel 33 der DE1793115 wurden in DMSO bzw. Wasser gelöst.
# (§1) Periphäre Blutzellen (PBC) werden jeweils mit der IC50 für die MDA-MB231 gemäß Experiment 3 der entsprechenden Substanzen inkubiert. Es wird gezeigt, dass die erfindungsgemäße Verbindung nach Beispiel 1 nicht mehr DNA-Schädigungen in den PBC erzeugt als eine Negativkontrolle, […]
# [1] = test system: periphere Blutzellen (PBC); assay: Cell damage (apoptosis rate, CaspACE assay, flow cytometry) in peripheral blood cells (Experiment 5); assay type: cell-based; conditions: for % Zellen in Apoptose: Versuch 1 Lymphozyten, 24 Stunden incubation at the IC50 for MDA-MB231
# Source text: Um die therapeutische Breite der neuen Substanzen abschätzen zu können, wurden periphere Blutzellen (PBC) und hämatologische Zellen (Nalm-6; CEM und U-937) für 24 Stunden mit unterschiedlichen Dosen verschiedener Triazenverbindungen bzw. Doxorubicin als positive Kontrolle für die hämatologischen Zelllinien inkubiert. Das Maß der Zellschädigung (Apoptoserate) wurde mittels CaspACE™ Assay (am Durchflusszytometer) bestimmt.
# Verschiedene Triazene wie erfindungsgemäße Verbindungen nach Beispiel 1, TMZ sowie Verbindungen nach Präparat 2 und 5 (entsprechend Verbindungen nach Präparat 2 und Beispiel 2a jeweils der WO 2009/004060) wurden in DMSO bzw. Wasser entsprechend den Angaben in Abbildung 22 gelöst.
# as §1
# HL-60 = assay: Growth inhibition (IC50) in leukaemic HL-60 cells (Experiment 7); assay type: cell-based; conditions: Homo sapiens, HL-60, 24 Stunden
# Source text: (§2) Hämatologische Zellen (CEM, HL-60) wurden für 24 Stunden mit unterschiedlichen Dosen verschiedener Triazenverbindungen inkubiert, um die IC50 zu bestimmen.
# CEM = assay: Growth inhibition (IC50) in leukaemic CEM cells (Experiment 7); assay type: cell-based; conditions: Homo sapiens, CCRF-CEM, 24 Stunden
# Source text: as §2
# [2] = Formulation trials for intravenous application (Experiment 8); assay type: physicochemical
# Method: Um die Testergebnisse aus Experiment 7 in einem in-vivo Xenograft Modell zu bestätigen, wurden Formulierungsversuche mit Verbindungen nach Beispiel 1 sowie der Verbindung nach Beispiel 2 aus DE 1 793 1 15, als den wirksamsten Verbindungen aus Experiment 7, unternommen.
# 15mg der Verbindung nach Beispiel 1 werden in 30µL DMSO ([…]) gelöst. Diese Stocklösung wird in 270µL 1 M Na2CO3 Lösung gegeben und nur leicht geschwenkt, nicht aber mittels Ultraschallbad behandelt.
# Gleichermaßen sollte eine Formulierung für Verbindungen nach Beispiel 2 aus DE 1 7 93 1 15 hergestellt werden. Hier wurden 15µL der Verbindung nach Beispiel 2 vorgelegt. Bei einer Dichte von 1,08g/ml entsprach dies 16,2mg der Verbindung nach Beispiel 2. Dazu wurden 32,4µL DMSO gegeben. […] Sodann wurden 90µL einer frisch hergestellten 1 molaren Na2CO3 Lösung vorgelegt und 10µL der Lösung der Verbindung nach Beispiel 2 hinzugegeben. […] Auch mittels Ultraschallbad konnte keine Auflösung des erzeugten Niederschlags herbeiführen.
# MCF-7-Zellen = assay: Intracellular metabolisation of triazenes in MCF-7 cell culture (Experiment 1); assay type: in vitro ADME; conditions: MCF-7, 100nmol/ml, 100% FCS, binnen 20 Stunden
# Method: Es wird gezeigt, dass Verbindungen nach Beispiel 1 schneller und in größerer Menge intrazellulär metabolisiert werden als die als Vergleichssubstanzen eingesetzten Verbindungen nach Präparat 2 und 5 (entsprechend Verbindungen nach Präparat 2 und Beispiel 2a jeweils der WO 2009/004060).
# Die getesteten Verbindungen wurden wie folgt gelöst: • Erfindungsgemäße Verbindung: • Beispiel 1 : in 20 mg/ml DMSO
# Vergleichssubstanzen: • Präparat 2: in 50mg/ml DMSO, • Präparat 5: in 50mg/ml Wasser.
# Alle drei Substanzen wurden äquimolar in einer Dosis von 100nmol/ml auf 1 x 10^7 HepG2 bzw. MCF-7-Zellen gegeben. Als Zellkulturmedium wurde 100% fötales Kälberserum (FCS) verwendet. Für den Versuch wurde der Gehalt aus Ausgangsprodukt und Metaboliten im Zellüberstand nach 1, 3 und 6 (HepG2) bzw. 1,3 und 20 Stunden (MCF-7) Inkubationszeit ermittelt. Alle drei Substanzen zeigten in Kontrollversuchen mit 100% FCS nach 40 Stunden metabolische Stabilität.
# [3] = mean of Exp. 1-5, read-out: IC50 Mittelwert
# [4] = mean of Exp. 1-4, read-out: IC50 Mittelwert
SMILES,IC50 (MDA-MB231) [µM],% Zellen in Apoptose [1],IC50 (HL-60; [3]) [µM],IC50 (HL-60; read-out: IC50 Exp. 1) [µM],IC50 (HL-60; read-out: IC50 Exp. 2) [µM],IC50 (HL-60; read-out: IC50 Exp. 3) [µM],IC50 (HL-60; read-out: IC50 Exp. 4) [µM],IC50 (HL-60; read-out: IC50 Exp. 5) [µM],IC50 (CEM; [4]) [µM],IC50 (CEM; read-out: IC50 Exp. 1) [µM],IC50 (CEM; read-out: IC50 Exp. 2) [µM],IC50 (CEM; read-out: IC50 Exp. 3) [µM],IC50 (CEM; read-out: IC50 Exp. 4) [µM],"Löslichkeit in DMSO ([2]; 16,2mg in 32,4µL DMSO)",Löslichkeit in der Formulierung ([2]; DMSO stock solution given into 1 M Na2CO3 Lösung),"stabile und verträgliche Formulierung ([2]; Lösungsmittel wie Cremophor, PEG400, Tween80, Poloxamer)","Zellschädigung (Apoptoserate) vs. Negativkontrolle ([1]; PBC, 24 stündige Inkubation)",metabolisiert (MCF-7-Zellen) [%]
CN(C)/N=N/c1[nH]cnc1C(N)=O [Dacarbazine],625,"8,260%",,,,,,,,,,,,,,,,
CN(C)N=Nc1ccc(C(=O)c2ccccc2)cc1 [Beispiel 2 der DE 1793115],25.5,"6,570%",10,8.69,11.8,11.1,9.47,9.08,10,10.3,10.3,8.69,10.7,löste sich vollständig,Sofort fiel weißer Niederschlag aus,nicht erreicht werden konnte,,
COc1cccc2c1C(=O)c1c(O)c3c(c(O)c1C2=O)C[C@@](O)(C(=O)CO)C[C@@H]3O[C@H]1C[C@H](N)[C@H](O)[C@H](C)O1 [Doxorubicin],,,,0.0012,0.00116,0.000662,0.00131,0.00134,8510,6810,5890,9940,114,,,,,
"Cn1nnc2c(C(N)=O)ncn2c1=O [Temozolomide, 4-methyl-5-oxo-2,3,4,6,8-pentazabicyclo [4.3.0] nona-2,7,9-triene-9-carboxamide]",515,"15,320%",,,,,,,,,,,,,,,Anstieg der Apoptoserate,
CN(C)N=Nc1ccc(C(=O)c2ccc(OCCC(=O)NCC(=O)O)cc2)cc1 [Präparat 5],,,1190,829,879,1530,1510,,735,754,879,678,628,,,,,~30
